Patent US20260053778A1, “USE OF NOVEL PPAR ACTIVITY MODULATOR FOR PREVENTION, AMELIORATION OR TREATMENT OF DEGENERATIVE BRAIN DISEASES” (POSTECH RESEARCH AND BUSINESS DEVELOPMENT FOUNDATION, priority 2022, published 2026)

What was measured:
BV2 cell line = assay: Cell viability assay (MTT), BV2; format: cell-based, mouse; conditions: BV2, 48 h, at higher concentrations
Method: Cell viability was measured by a chromogenic assay that biologically reduces 3-(4,5-dimethyl-thiazol-2-yl)-2,5-diphenyltetrazolium bromide (MTT) to formazan in living cells. Briefly, cells were cultured in 96-well plates in a final volume of 100 μL. After 24 h, the culture medium was replaced with fresh medium containing DTMB compound, and the cells were cultured for another 48 h. Next, MTT (dissolved in PBS at 5 mg/mL) was added to the culture medium. The cells were cultured in the dark at 37° C. for 1 h, and then the supernatant was removed from the wells. The formazan crystals were dissolved by adding total MTT solvent (4 mM HCl and 0.1% Nonidet P-40, both dissolved in isopropanol), and the absorbance was measured at 570 nm using a microplate reader, Infinite 200 Pro NanoQuant microplate reader (TECAN, Switzerland).

PPARβ/δ = molecular target: T1, PPARβ/δ (Homo sapiens, UniProt Q03181); assay: GAL4-transactivation assay in HEK293A cells, PPARβ/δ; format: cell-based; conditions: GAL4 reporter, 24 h, compared with GW501516
T1 construct: expressed in transfected cells; host or cells: HEK293A
T1 sequence (Q03181 1-441): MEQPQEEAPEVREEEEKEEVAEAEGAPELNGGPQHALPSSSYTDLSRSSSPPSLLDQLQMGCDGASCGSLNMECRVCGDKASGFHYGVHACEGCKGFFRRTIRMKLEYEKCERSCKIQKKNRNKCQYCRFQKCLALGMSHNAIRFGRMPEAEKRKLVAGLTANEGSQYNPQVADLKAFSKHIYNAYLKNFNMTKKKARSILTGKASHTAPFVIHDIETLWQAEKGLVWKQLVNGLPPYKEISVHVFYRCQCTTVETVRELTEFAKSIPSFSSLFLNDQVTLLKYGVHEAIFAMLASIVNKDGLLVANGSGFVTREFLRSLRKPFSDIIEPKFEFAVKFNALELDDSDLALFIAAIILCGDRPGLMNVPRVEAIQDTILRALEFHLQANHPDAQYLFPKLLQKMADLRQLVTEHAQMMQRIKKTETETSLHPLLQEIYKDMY
Method: A GAL4-transactivation assay experiment was performed to determine whether the drug was bound to the PPAR ligand binding site. HEK293A cells were transfected with GAL4-reporter plasmid and pGL4.74 (Promega, Madison, WI, USA) as an internal standard via electroporation using the Neon Transfection System (Invitrogen, Carlsbad, CA, USA). All vectors were kindly provided by Professor Kanno Yuichiro, Toho University, Japan. After overnight culture, cells were treated with DTMB and each positive control compound for 24 h. Cells were then harvested, resuspended in luciferase lysis buffer (Promega), and incubated on ice for 10 min. Cell debris was removed by centrifugation at 20,000×g, 4° C. for 10 min, and the supernatant was used for the luciferase assay. Luciferase activity was measured using the Dual Luciferase Reporter Assay System (Promega) according to the manufacturer's instructions. In the measurement experiment, firefly luciferase activity was normalized to Renilla luciferase activity. To investigate the concentration-dependent effect of DTMB drug, EC50 values were measured by treating various concentrations of DTMB.

BV2 microglial cell line = assay: Cytokine ELISA in BV2 microglia; format: cell-based, mouse; conditions: BV2 treated with LPS or Aβ aggregates, DTMB 24 h
Method: To confirm a more clear anti-inflammatory effect, the microglia cell line (BV2) and microglia isolated from mice were treated with lipopolysaccharide (LPS) and Aβ aggregates to induce an inflammatory response, and then DTMB was treated to measure the decrease in cytokine levels in microglia by DTMB treatment using ELISA.
The BV2 mouse microglia cell line was provided by Professor Seok Kyung-ho of Kyungpook National University. BV2 cells were cultured in a 5% CO2 incubator with a humidified atmosphere at 37° C. with Dulbecco's Modified Eagle Medium (DMEM) (Hyclone, Logan, UT, USA) containing 5% fetal bovine serum (FBS, Hyclone) and 50 μg/mL gentamicin (Lonza, Switzerland).
Cytokine levels (TNF-α, IL-1β, and IL-6) were measured in the media of BV2 microglia and primary microglia treated with LPS (1 μg/mL) and human Aβ1-42 (5 μg/mL). Human Aβ1-42 (AnaSpec, Fremont, CA, USA) was pre-aggregated in the culture medium for 24 h before cell treatment. BV2 cells and primary microglia were seeded in 12-well plates (SPL) at a density of 1× 10^5 cells/well in 1 mL of complete medium. After 12 h, cells were treated with LPS or human Aβ1-42 and further cultured with DTMB for 24 h. […]

[1] = tested on: 5×FAD Alzheimer's dementia-induced mice; assay: Immunohistochemistry of gliosis (IBA-1, GFAP) in brain tissue; format: in vivo, mouse; conditions: cerebral cortex and hippocampus, IBA-1 and GFAP staining, 5×FAD mice, DTMB 10 mg/kg orally
Method: The degree of gliosis was confirmed through immunochemical analysis using antibodies against IBA-1, a specific protein of microglia, and GFAP, a specific protein of astrocytes. Specifically, immunohistochemistry was performed in the same manner as in Example 6-1 using anti-Iba1 antibody (Wako, Japan, 1:200) and anti-GFAP antibody (Abcam, Cambridge, UK, 1:200) as primary antibodies.

NF-κB = NF-κB gene expression by qPCR after MG132 and DTMB; format: cell-based; conditions: MG132 (20 μM) 6 hours, DTMB (25 μM) 24 hours
Method: In addition, to inhibit proteasomal degradation, cells were treated with MG132 (20 μM) for 6 hours and DTMB (25 μM) for 24 hours, and then the gene expression level of NF-κB was confirmed by qPCR analysis. As shown in the results of FIGS. 2L and 2M, this response was mediated by proteasomal degradation rather than transcriptional inhibition, since there was no change in the mRNA level of NF-κB.

COc1ccc(-c2cc(=O)oc3c(C)c(OC(=O)[C@H](Cc4c[nH]c5ccccc45)NC(=O)OC(C)(C)C)ccc23)cc1 [DTMB, [4-(4-Methoxyphenyl)-8-methyl-2-oxochromen-7-yl](2S)-3-(1H-indol-3-yl)-2-[(2-methylpropan-2-yl)oxycarbonylamino]propanoate]
Cytotoxicity (MTT) (BV2 cell line): no cytotoxicity | PPARβ/δ activation versus positive control (PPARβ/δ): activated at a slightly higher concentration than GW501516 and rosiglitazone, respectively | Level of IL-6 (BV2 microglial cell line): statistically significantly reduced | Level of TNF-α (BV2 microglial cell line): statistically significantly reduced | Hyperactivity of microglia and astrocytes (gliosis) [1]: significantly reduced | mRNA level of NF-κB (NF-κB): no change
